Measured values taken from US9145351B2, “Azole derivatives, methods for producing the same, intermediate thereof, agro-horticultural agents” (KUREHA CORPORATION, priority 2009, dated 2015).
Read-outs that look alike come from different tables or passages of the source.

Key:
Assay type in all cases: cell-based
Phaeosphaeria nodorum = test: Plate medium fungicidal assay, wheat Septoria nodorum blotch P.n (Experimental Example 5); settings: Parastagonospora nodorum
Method in brief: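 Compound in DMSO mixed into PDA plate medium at 50 mg/L and 5 mg/L; 4 mm mycelial plug of pre-cultured fungus inoculated onto plate. Colony diameter compared with untreated plate, % mycelial growth inhibition = 100(dc−dt)/dc, scored in 5 grades.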

[1] = test system: Pseudocercoporella herpotrichoides; test: Plate medium fungicidal assay, wheat eye spot P.h (Experimental Example 5)
Method in brief: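 Compound in DMSO mixed into PDA agar for plates at 50 mg/L and 5 mg/L, inoculated with a 4 mm mycelial plug of Pseudocercosporella herpotrichoides. Colony diameter compared with untreated plates: % mycelial growth inhibition = 100(dc−dt)/dc, scored on a 5-grade scale.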

Fusarium graminearum = test: microbe, parasite or virus in culture; settings: Fusarium graminearum
Pyricularia oryzae = test: microbe, parasite or virus in culture; settings: Pyricularia oryzae
Giberella fujikuroi = test: Plate medium fungicidal assay, rice bakanae disease G.f (Experimental Example 5)
Method in brief: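 Gibberella fujikuroi mycelial plugs (4 mm) placed on PDA plates containing compound at 50 mg/L and 5 mg/L, added from DMSO solution. Colony diameter compared with untreated plates as % inhibition = 100(dc−dt)/dc, then scored in 5 grades.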

Fusarium oxysporum = test: Plate medium fungicidal assay, cucumber fusarium wilt F.c (Experimental Example 5); settings: Fusarium oxysporum
Method in brief: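 Compound in DMSO mixed into PDA agar to give plates at 50 mg/L and 5 mg/L, then inoculated with 4 mm mycelial plug. Colony diameter compared with untreated plate as % mycelial growth inhibition, R=100(dc−dt)/dc, then scored on a 5-grade scale.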

Rhynchosporium secalis = test: Plate medium fungicidal assay, barley leaf blotch R.sec (Experimental Example 5); settings: Rhynchosporium secalis
Method in brief: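 Compound in DMSO mixed into PDA plate medium at 50 mg/L and 5 mg/L; 4 mm mycelial plug of the fungus inoculated. Colony diameter compared with untreated plates gives % mycelial growth inhibition R=100(dc−dt)/dc, scored on a 5-grade scale.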

[2] = plate medium containing compound at 5 mg/L, read-out: Growth inhibition grade, P.n
[3] = plate medium containing compound at 50 mg/L, read-out: Growth inhibition grade, P.n
[4] = plate medium, 5 mg/L, read-out: growth inhibition grade P.n
[5] = plate medium, 50 mg/L, read-out: growth inhibition grade P.n
[6] = plate medium containing compound at 5 mg/L, read-out: Growth inhibition grade, P.h
[7] = plate medium containing compound at 50 mg/L, read-out: Growth inhibition grade, P.h
[8] = plate medium, 5 mg/L, read-out: growth inhibition grade P.h
[9] = plate medium, 50 mg/L, read-out: growth inhibition grade P.h
[10] = read-out: Growth inhibition grade, F.g
[11] = read-out: growth inhibition grade F.g
[12] = read-out: Growth inhibition grade, P.o
[13] = read-out: growth inhibition grade P.o
[14] = plate medium containing compound at 5 mg/L, read-out: Growth inhibition grade, G.f
[15] = plate medium containing compound at 50 mg/L, read-out: Growth inhibition grade, G.f
[16] = plate medium, 5 mg/L, read-out: growth inhibition grade G.f
[17] = plate medium, 50 mg/L, read-out: growth inhibition grade G.f
[18] = plate medium containing compound at 5 mg/L, read-out: Growth inhibition grade, F.c
[19] = plate medium containing compound at 50 mg/L, read-out: Growth inhibition grade, F.c
[20] = plate medium, 5 mg/L, read-out: growth inhibition grade F.c
[21] = plate medium, 50 mg/L, read-out: growth inhibition grade F.c
[22] = plate medium containing compound at 5 mg/L, read-out: Growth inhibition grade, R.sec
[23] = plate medium containing compound at 50 mg/L, read-out: Growth inhibition grade, R.sec
[24] = plate medium, 5 mg/L, read-out: growth inhibition grade R.sec
[25] = plate medium, 50 mg/L, read-out: growth inhibition grade R.sec

Row | Structure (SMILES) | inhibition at 5 µg/mL (Phaeosphaeria nodorum; [2]) [%] | inhibition at 50 µg/mL (Phaeosphaeria nodorum; [3]) [%] | inhibition at 5 µg/mL (Phaeosphaeria nodorum; [4]) [%] | inhibition at 50 µg/mL (Phaeosphaeria nodorum; [5]) [%] | inhibition at 5 µg/mL [1, 6] [%] | inhibition at 50 µg/mL [1, 7] [%] | inhibition at 5 µg/mL [1, 8] [%] | inhibition at 50 µg/mL [1, 9] [%] | inhibition at 5 µg/mL (Fusarium graminearum; [10]) [%] | inhibition at 50 µg/mL (Fusarium graminearum; [10]) [%] | inhibition at 5 µg/mL (Fusarium graminearum; [11]) [%] | inhibition at 50 µg/mL (Fusarium graminearum; [11]) [%] | inhibition at 5 µg/mL (Pyricularia oryzae; [13]) [%] | inhibition at 50 µg/mL (Pyricularia oryzae; [13]) [%] | inhibition at 5 µg/mL (Giberella fujikuroi; [16]) [%] | inhibition at 50 µg/mL (Giberella fujikuroi; [17]) [%] | inhibition at 5 µg/mL (Fusarium oxysporum; [20]) [%] | inhibition at 50 µg/mL (Fusarium oxysporum; [21]) [%] | inhibition at 5 µg/mL (Rhynchosporium secalis; [24]) [%] | inhibition at 50 µg/mL (Rhynchosporium secalis; [25]) [%] | other results
1 | C[C@]1(CCl)CC[C@@H](Cc2ccccc2)[C@]1(O)Cn1cncn1 (racemic) [Compound I-73, (1RS,2SR,5SR)-2-chloromethyl-5-benzyl-2-methyl-1-(1H-1,2,4-triazol-1-ylmethyl)cyclopentanol] | > 80 | > 80 | > 80 | > 80 | > 80 | > 80 | > 80 | > 80 | > 80 | > 80 | > 80 | > 80 | > 80 | > 80 | > 80 | > 80 | > 80 | > 80 | > 80 | > 80 | inhibition at 5 µg/mL (Pyricularia oryzae; [12]): > 80%; inhibition at 50 µg/mL (Pyricularia oryzae; [12]): > 80%; inhibition at 5 µg/mL (Giberella fujikuroi; [14]): > 80%; inhibition at 50 µg/mL (Giberella fujikuroi; [15]): > 80%; inhibition at 5 µg/mL (Fusarium oxysporum; [18]): > 80%; inhibition at 50 µg/mL (Fusarium oxysporum; [19]): > 80%; inhibition at 5 µg/mL (Rhynchosporium secalis; [22]): > 80%; inhibition at 50 µg/mL (Rhynchosporium secalis; [23]): > 80%
2 | C[C@]1(CBr)CC[C@@H](Cc2ccc(F)cc2)[C@]1(O)Cn1cncn1 (racemic) [Compound I-601, (1RS,2SR,5SR)-2-bromomethyl-5-(4-fluorobenzyl)-2-methyl-1-(1H-1,2,4-triazol-1-ylmethyl)cyclopentanol] | – | – | 60 to 80 | > 80 | – | – | 60 to 80 | > 80 | – | – | > 80 | > 80 | > 80 | > 80 | > 80 | > 80 | > 80 | > 80 | > 80 | > 80 | –
3 | C[C@]1(CCl)CC[C@@H](Cc2ccc(Cl)cc2)[C@]1(O)Cn1cncn1 (racemic) [Compound I-1, (1RS,2SR,5SR)-5-(4-chlorobenzyl)-2-chloromethyl-2-methyl-1-(1H-1,2,4-triazol-1-ylmethyl)cyclopentanol] | > 80 | > 80 | > 80 | > 80 | > 80 | > 80 | > 80 | > 80 | > 80 | > 80 | > 80 | > 80 | > 80 | > 80 | > 80 | > 80 | > 80 | > 80 | > 80 | > 80 | inhibition at 5 µg/mL (Pyricularia oryzae; [12]): > 80%; inhibition at 50 µg/mL (Pyricularia oryzae; [12]): > 80%; inhibition at 5 µg/mL (Giberella fujikuroi; [14]): > 80%; inhibition at 50 µg/mL (Giberella fujikuroi; [15]): > 80%; inhibition at 5 µg/mL (Fusarium oxysporum; [18]): > 80%; inhibition at 50 µg/mL (Fusarium oxysporum; [19]): > 80%; inhibition at 5 µg/mL (Rhynchosporium secalis; [22]): > 80%; inhibition at 50 µg/mL (Rhynchosporium secalis; [23]): > 80%
